Calls of active or inactive are those of the source. The calls are words filed in the database; no cut-off is given here.

Data set [1] deals with RAW264.7. Description: Antiinflammatory activity in LPS-induced mouse RAW264.7 cells assessed as inhibition of NO production at 1 to 20 uM pretreated for 1 hr followed by LPS stimulation and measured after 23 hrs by Griess method. It is filed as functional, cell-based. To be noted: dose 1-20 µM, time 24.0 hrs. In general terms: Griess reagent forms a coloured azo dye with nitrite.

The subject of data set [2] is RAW264.7. As to the kind of experiment: Antiinflammatory activity in LPS-induced mouse RAW264.7 cells assessed as inhibition of TNF-alpha production at 20 uM pretreated for 1 hr followed by LPS stimulation and measured after 24 hrs by ELISA. To be noted: time 25.0 hrs. It is filed as functional, cell-based. (In general: In an ELISA, binding on a coated surface is turned into a signal by an enzyme label.)

The test system of data set [3] is RAW264.7. Description: Cytotoxicity against mouse RAW264.7 cells assessed as reduction in cell viability at 1 to 20 uM incubated for 24 hrs by MTT assay. The format is toxicity, cell-based. To be noted: raw264.7, 24 h, dose 1-20 µM.
In data set [4] the test system is RAW264.7. Description: Antiinflammatory activity in LPS-induced mouse RAW264.7 cells assessed as inhibition of IL-6 production at 20 uM pretreated for 1 hr followed by LPS stimulation and measured after 24 hrs by ELISA. It is filed as functional, cell-based. To be noted: time 25.0 hrs.

For `C=C1CC[C@H]2C(C)(C)CCC[C@]2(C)[C@H]1C/C=C(\CC(=O)OCc1cn(CCN2C(=O)C(=O)c3ccccc32)nn1)C(=O)OCc1cn(CCN2C(=O)C(=O)c3ccccc32)nn1`, the outcome with RAW264.7 [1], in the data set on RAW264.7 [2] and with RAW264.7 [4] was Active. For the same molecule, in the data set with RAW264.7 [3], the Activity result was “Non-Toxic”.

Consider `C=C1CC[C@H]2C(C)(C)CCC[C@]2(C)[C@H]1C/C=C(/C=O)CC(=O)OCc1cn(CCCCN2C(=O)C(=O)c3cc(Cl)ccc32)nn1`, for which the outcome in the data set with RAW264.7 [2] and in the data set on RAW264.7 [4] was Active. Also, the Activity entry in the data set on RAW264.7 [3] is “Non-Toxic”.

As to `C=C1CC[C@H]2C(C)(C)CCC[C@]2(C)[C@H]1C/C=C(/C=O)CC(=O)OCc1cn(CCN2C(=O)C(=O)c3cc(OC(F)(F)F)ccc32)nn1`, the result in the data set with RAW264.7 [1], in the data set with RAW264.7 [2] and in the data set on RAW264.7 [4] was Active. Besides, in the data set with RAW264.7 [3], the Activity entry is given as “Non-Toxic”.

`C=C1CC[C@H]2C(C)(C)CCC[C@]2(C)[C@H]1C/C=C(\CC(=O)OCc1cn(CCN2C(=O)C(=O)c3cc(Cl)ccc32)nn1)C(=O)OCc1cn(CCN2C(=O)C(=O)c3cc(Cl)ccc32)nn1`: the result in the data set on RAW264.7 [2] and in the data set on RAW264.7 [4] was Active. The Activity entry in the data set on RAW264.7 [3] is recorded as “Non-Toxic”.

In the case of `C=C1CC[C@H]2C(C)(C)CCC[C@]2(C)[C@H]1C/C=C(/C=O)CC(=O)OCc1cn(CCN2C(=O)C(=O)c3cc(OC)ccc32)nn1`, the outcome in the data set on RAW264.7 [2] and in the data set on RAW264.7 [4] was Active. Besides, in the data set on RAW264.7 [3], the Activity result is on record as “Non-Toxic”.

For `C=C1CC[C@H]2C(C)(C)CCC[C@]2(C)[C@H]1C/C=C(/C=O)CC(=O)OCc1cn(CCCCN2C(=O)C(=O)c3cc(Br)ccc32)nn1`, the result with RAW264.7 [2] and in the data set with RAW264.7 [4] was Active. The Activity result with RAW264.7 [3] is “Non-Toxic”.

Take `C=C1CC[C@H]2C(C)(C)CCC[C@]2(C)[C@H]1C/C=C(/C=O)CC(=O)OCc1cn(CCCN2C(=O)C(=O)c3cc(OC)ccc32)nn1`: the outcome in the data set with RAW264.7 [2] and in the data set on RAW264.7 [4] was Active. For the same molecule, the Activity result with RAW264.7 [3] is listed as “Non-Toxic”.

On to `C=C1CC[C@H]2C(C)(C)CCC[C@]2(C)[C@H]1C/C=C(/C=O)CC(=O)OCc1cn(CCCN2C(=O)C(=O)c3cc(Br)ccc32)nn1`, for which the result in the data set on RAW264.7 [2] and with RAW264.7 [4] was Active. The Activity result with RAW264.7 [3] was “Non-Toxic”.

For the molecule `C=C1CC[C@H]2C(C)(C)CCC[C@]2(C)[C@H]1C/C=C(/C=O)CC(=O)OCc1cn(CCCCN2C(=O)C(=O)c3cc(F)ccc32)nn1`, the outcome in the data set on RAW264.7 [2] and with RAW264.7 [4] was Active. The Activity result in the data set on RAW264.7 [3] is recorded as “Non-Toxic”.

`C=C1CC[C@H]2C(C)(C)CCC[C@]2(C)[C@H]1C/C=C(/C=O)CC(=O)OCc1cn(CCCCN2C(=O)C(=O)c3cc(C)ccc32)nn1`: the outcome with RAW264.7 [1], with RAW264.7 [2] and in the data set with RAW264.7 [4] was Active. Moreover, in the data set on RAW264.7 [3], the Activity entry is on record as “Non-Toxic”.

In the case of `C=C1CC[C@H]2C(C)(C)CCC[C@]2(C)[C@H]1C/C=C(\CC(=O)OCc1cn(CCN2C(=O)C(=O)c3cc(OC)ccc32)nn1)C(=O)OCc1cn(CCN2C(=O)C(=O)c3cc(OC)ccc32)nn1`, the outcome with RAW264.7 [2] and with RAW264.7 [4] was Active. The Activity result in the data set on RAW264.7 [3] is listed as “Non-Toxic”.

With `C=C1CC[C@H]2C(C)(C)CCC[C@]2(C)[C@H]1C/C=C(\CC(=O)OCc1cn(CCN2C(=O)C(=O)c3cc(I)ccc32)nn1)C(=O)OCc1cn(CCN2C(=O)C(=O)c3cc(I)ccc32)nn1`, the outcome in the data set with RAW264.7 [2] and with RAW264.7 [4] was Active. Moreover, in the data set with RAW264.7 [3], the Activity result was “Non-Toxic”.

For the molecule `C=C1CC[C@H]2C(C)(C)CCC[C@]2(C)[C@H]1C/C=C(/C=O)CC(=O)OCc1cn(CCN2C(=O)C(=O)c3cc(C)ccc32)nn1`, the result in the data set on RAW264.7 [2] and in the data set on RAW264.7 [4] was Active. The Activity entry in the data set on RAW264.7 [3] is “Non-Toxic”.

`C=C1CC[C@H]2C(C)(C)CCC[C@]2(C)[C@H]1C/C=C(/C=O)CC(=O)OCc1cn(CCCCN2C(=O)C(=O)c3ccccc32)nn1`: the outcome with RAW264.7 [1] was inactive. Also, the result with RAW264.7 [2] and with RAW264.7 [4] was Active. The Activity entry with RAW264.7 [3] is reported as “Non-Toxic”.

Regarding `C=C1CC[C@H]2C(C)(C)CCC[C@]2(C)[C@H]1C/C=C(/C=O)CC(=O)OCc1cn(CCCN2C(=O)C(=O)c3cc(OC(F)(F)F)ccc32)nn1`, the outcome with RAW264.7 [2] and in the data set with RAW264.7 [4] was Active. In addition, the Activity entry in the data set with RAW264.7 [3] is listed as “Non-Toxic”.

For `C=C1CC[C@H]2C(C)(C)CCC[C@]2(C)[C@H]1C/C=C(\CC(=O)OCc1cn(CCCN2C(=O)C(=O)c3cc(OC)ccc32)nn1)C(=O)OCc1cn(CCCN2C(=O)C(=O)c3cc(OC)ccc32)nn1`, the result with RAW264.7 [2] and in the data set with RAW264.7 [4] was Active. The Activity result in the data set with RAW264.7 [3] is reported as “Non-Toxic”.

For the molecule `C=C1CC[C@H]2C(C)(C)CCC[C@]2(C)[C@H]1C/C=C(/C=O)CC(=O)OCc1cn(CCCN2C(=O)C(=O)c3ccccc32)nn1`, the result in the data set with RAW264.7 [1] was inactive. Further, the result in the data set on RAW264.7 [2] and with RAW264.7 [4] was Active. For the same molecule, the Activity entry in the data set with RAW264.7 [3] is “Non-Toxic”.

In the case of `C=C1CC[C@H]2C(C)(C)CCC[C@]2(C)[C@H]1C/C=C(/C=O)CC(=O)OCc1cn(CCCN2C(=O)C(=O)c3cc(C)ccc32)nn1`, the result in the data set on RAW264.7 [2] and with RAW264.7 [4] was Active. Besides, the Activity result in the data set on RAW264.7 [3] is “Non-Toxic”.

As for `C=C1CC[C@H]2C(C)(C)CCC[C@]2(C)[C@H]1C/C=C(/C=O)CC(=O)OCc1cn(CCCCN2C(=O)C(=O)c3cc(OC(F)(F)F)ccc32)nn1`, the outcome in the data set on RAW264.7 [2] and in the data set with RAW264.7 [4] was Active. Besides, the Activity entry with RAW264.7 [3] is recorded as “Non-Toxic”.

Consider `C=C1CC[C@H]2C(C)(C)CCC[C@]2(C)[C@H]1C/C=C(\CC(=O)OCc1cn(CCN2C(=O)C(=O)c3cc(F)ccc32)nn1)C(=O)OCc1cn(CCN2C(=O)C(=O)c3cc(F)ccc32)nn1`, for which the result in the data set with RAW264.7 [2] and in the data set with RAW264.7 [4] was Active. Further, in the data set with RAW264.7 [3], the Activity result is recorded as “Non-Toxic”.

Regarding `C=C1CC[C@H]2C(C)(C)CCC[C@]2(C)[C@H]1C/C=C(\CC(=O)OCc1cn(CCN2C(=O)C(=O)c3cc(C)ccc32)nn1)C(=O)OCc1cn(CCN2C(=O)C(=O)c3cc(C)ccc32)nn1`, the outcome with RAW264.7 [2] and in the data set with RAW264.7 [4] was Active. The Activity result in the data set with RAW264.7 [3] was “Non-Toxic”.

For the molecule `C=C1CC[C@H]2C(C)(C)CCC[C@]2(C)[C@H]1C/C=C(/C=O)CC(=O)OCc1cn(CCN2C(=O)C(=O)c3cc(Br)ccc32)nn1`, in the data set on RAW264.7 [1], the outcome was inactive. The outcome in the data set on RAW264.7 [2] and in the data set with RAW264.7 [4] was Active. The Activity entry in the data set with RAW264.7 [3] was “Non-Toxic”.

In the case of `C=C1CC[C@H]2C(C)(C)CCC[C@]2(C)[C@H]1C/C=C(/C=O)CC(=O)OCc1cn(CCCN2C(=O)C(=O)c3cc(I)ccc32)nn1`, the result with RAW264.7 [2] and in the data set with RAW264.7 [4] was Active. Besides, in the data set with RAW264.7 [3], the Activity entry was “Non-Toxic”.

Turning to `C=C1CC[C@H]2C(C)(C)CCC[C@]2(C)[C@H]1C/C=C(/C=O)CC(=O)OCc1cn(CCCN2C(=O)C(=O)c3cc(F)ccc32)nn1`, the outcome with RAW264.7 [1], in the data set with RAW264.7 [2] and with RAW264.7 [4] was Active. In the data set on RAW264.7 [3], the Activity entry is on record as “Non-Toxic”.

In the case of `C=C1CC[C@H]2C(C)(C)CCC[C@]2(C)[C@H]1C/C=C(\CC(=O)O)C(=O)O`, the result in the data set with RAW264.7 [2] and in the data set on RAW264.7 [4] was Active. Also, the Activity result in the data set on RAW264.7 [3] is on record as “Non-Toxic”.

On to `C=C1CC[C@H]2C(C)(C)CCC[C@]2(C)[C@H]1C/C=C(/C=O)CC(=O)OCc1cn(CCCCN2C(=O)C(=O)c3cc(OC)ccc32)nn1`, for which the outcome in the data set on RAW264.7 [2] and with RAW264.7 [4] was Active. For the same molecule, the Activity entry in the data set on RAW264.7 [3] is “Non-Toxic”.

As to `C=C1CC[C@H]2C(C)(C)CCC[C@]2(C)[C@H]1C/C=C(/C=O)CC(=O)OCc1cn(CCCN2C(=O)C(=O)c3cc(Cl)ccc32)nn1`, the outcome in the data set on RAW264.7 [2] and in the data set on RAW264.7 [4] was Active. The Activity result in the data set on RAW264.7 [3] is on record as “Non-Toxic”.

`C=C1CC[C@H]2C(C)(C)CCC[C@]2(C)[C@H]1C/C=C(/C=O)CC(=O)OCc1cn(CCCCN2C(=O)C(=O)c3cc(I)ccc32)nn1`: the result in the data set on RAW264.7 [2] and in the data set on RAW264.7 [4] was Active. The Activity entry in the data set with RAW264.7 [3] is listed as “Non-Toxic”.

In the case of `C=C1CC[C@H]2C(C)(C)CCC[C@]2(C)[C@H]1C/C=C(\CC(=O)OCc1cn(CCCN2C(=O)C(=O)c3cc(Cl)ccc32)nn1)C(=O)OCc1cn(CCCN2C(=O)C(=O)c3cc(Cl)ccc32)nn1`, the outcome in the data set with RAW264.7 [2] and with RAW264.7 [4] was Active. In the data set on RAW264.7 [3], the Activity result is “Non-Toxic”.

Regarding `C=C1CC[C@H]2C(C)(C)CCC[C@]2(C)[C@H]1C/C=C(\CC(=O)OCc1cn(CCN2C(=O)C(=O)c3cc(Br)ccc32)nn1)C(=O)OCc1cn(CCN2C(=O)C(=O)c3cc(Br)ccc32)nn1`, the result with RAW264.7 [2] and in the data set with RAW264.7 [4] was Active. Further, the Activity result in the data set with RAW264.7 [3] is reported as “Non-Toxic”.

For the molecule `C=C1CC[C@H]2C(C)(C)CCC[C@]2(C)[C@H]1C/C=C(/C=O)CC=O`, the result in the data set on RAW264.7 [2] and with RAW264.7 [4] was Active. In addition, the Activity result in the data set on RAW264.7 [3] was “Non-Toxic”.

The values are drawn from ChEMBL document CHEMBL5579867, “Ligand-Based Pharmacophoric Design and Anti-inflammatory Evaluation of Triazole Linked Semisynthetic Labdane Conjugates” (ACS Med Chem Lett, 2024).
